Laboratory results published in patent US7192931B2, “Treatment of demyelinating diseases” (Neuren Pharmaceuticals Ltd., priority 2000, dated 2007).

How the values were obtained:
[1] = system: N-methyl-D-aspartate (NMDA) receptor; details: U.S. Pat. No. 5,804,550; cited from earlier work
hippocampus neurons = details: Saura et al., 1999; cited from earlier work
[2] = system: C57Bl/6 mice with MOG35-55 peptide-induced EAE; assay: Expanded disability status scale for EAE treated mice; type: in vivo, mouse; details: for total scores (disability scale): at day 70 as printed, 35 for rat IgG treated control mice; for Maximal disability score: Alertness / Maximal disability score: Bladder function / Maximal disability score: Eye movements / Maximal disability score: Motor (grip)* / Maximal disability score: Other signs (shine hairs and loose skin) / Maximal disability score: Sensory* Light touch / Maximal disability score: Sensory* Pain / Maximal disability score: Spontaneous mobility / Maximal disability score: Tone* / Maximal disability score: Tremor / Maximal disability score: Vision (including pupillary reflex) / Total expanded disability scale: mean values
Method: C57Bl/6 mice (8–10 week old) were injected subcutaneously in one flank with 300 μg of MOG35-55 peptide ([…]: SEQ ID NO:1) synthesized by Mimotapes Pty Ltd, Clayton, Australia and emulsified in CFA containing 500 μg of Mycobacterium tuberculosis H37Ra (DIFCO Laboratories, Detrit, USA). They also received 500 ng of pertussis toxin (List Biological Laboratories, CA, USA) in 200 μl PBS intravenously via the tail vein, followed 48 hours later by a second dose. A second injection of MOG peptide was given in the absence of pertussis toxin one week later in the opposite flank, as described previously (Kanwar et al., 2000b).
Two treatment protocols were employed, involving the treatment of early disease, versus advanced disease. For early disease, reagents were administered at day 35 (following MOG injection). Antibody was administered thrice on alternate days, whereas neuroprotectors were given daily for 6 days, where 50% of reagent was given ip and 50% iv. In the treatment of advanced disease, therapy as above was initiated at day 60, with either three or eight anti-MAdCAM-1 mAb injections, and neuroprotectors given daily for either 7 or 18 days.
The mice were monitored daily and scored according to the following scale: 0, no clinical signs of EAE; 1, limp tail; 2, partial hind limb paralysis; 3, complete hind limb paralysis; 4, complete hind limb and partial fore limb paralysis; 5, paralysis extending to diaphragm; 6, hind and fore limb paralysis; 7, death due to EAE. Paralysis extending to the diaphragm was denoted as difficulty in remaining upright. […] The daily mean clinical score for each group is the mean disease score of at least five mice. The body weight of animals was measured regularly throughout the experiments. The expanded disability status scale for EAE treated mice was scored using an earlier published scoring system (Villoslada et al. 2000).

EAE = details: Smith et al., 2000, Pitt et al.; cited from earlier work
oligodendrocytes = details: Smith et al., 2000, Pitt et al.; cited from earlier work

## Gly-Pro-Glu [GPE]
[1]
  glutamate binding to the NMDA receptor: inhibits glutamate binding
Hippocampus neurons
  neuronal death in the hippocampus injured by NMDA: prevents neuronal death
[2]
  total scores (disability scale): 10
[2]; day 55 after immunization
  Maximal disability score: Alertness: 2
  Maximal disability score: Bladder function: 0
  Maximal disability score: Eye movements: 1
  Maximal disability score: Motor (grip)*: 12
  Maximal disability score: Other signs (shine hairs and loose skin): 3
  Maximal disability score: Sensory* Light touch: 8
  Maximal disability score: Sensory* Pain: 8
  Maximal disability score: Spontaneous mobility: 3
  Maximal disability score: Tone*: 12
  Maximal disability score: Tremor: 2
  Maximal disability score: Vision (including pupillary reflex): 1
  Total expanded disability scale: 52
[2]; day 60 after immunization
  Maximal disability score: Alertness: 2
  Maximal disability score: Bladder function: 1
  Maximal disability score: Eye movements: 1
  Maximal disability score: Motor (grip)*: 12
  Maximal disability score: Other signs (shine hairs and loose skin): 2
  Maximal disability score: Sensory* Light touch: 8
  Maximal disability score: Sensory* Pain: 8
  Maximal disability score: Spontaneous mobility: 3
  Maximal disability score: Tone*: 12
  Maximal disability score: Tremor: 2
  Maximal disability score: Vision (including pupillary reflex): 1
  Total expanded disability scale: 52
[2]; day 65 after immunization
  Maximal disability score: Alertness: 1
  Maximal disability score: Bladder function: 0
  Maximal disability score: Eye movements: 0
  Maximal disability score: Motor (grip)*: 4
  Maximal disability score: Other signs (shine hairs and loose skin): 0
  Maximal disability score: Sensory* Light touch: 0
  Maximal disability score: Sensory* Pain: 0
  Maximal disability score: Spontaneous mobility: 2
  Maximal disability score: Tone*: 8
  Maximal disability score: Tremor: 0
  Maximal disability score: Vision (including pupillary reflex): 0
  Total expanded disability scale: 15
[2]; day 70 after immunization
  Maximal disability score: Alertness: 1
  Maximal disability score: Bladder function: 0
  Maximal disability score: Eye movements: 1
  Maximal disability score: Motor (grip)*: 4
  Maximal disability score: Other signs (shine hairs and loose skin): 0
  Maximal disability score: Sensory* Light touch: 0
  Maximal disability score: Sensory* Pain: 0
  Maximal disability score: Spontaneous mobility: 3
  Maximal disability score: Tone*: 4
  Maximal disability score: Tremor: 0
  Maximal disability score: Vision (including pupillary reflex): 0
  Total expanded disability scale: 13
[2]; day 75 after immunization
  Maximal disability score: Alertness: 1
  Maximal disability score: Bladder function: 1
  Maximal disability score: Eye movements: 0
  Maximal disability score: Motor (grip)*: 0
  Maximal disability score: Other signs (shine hairs and loose skin): 0
  Maximal disability score: Sensory* Light touch: 0
  Maximal disability score: Sensory* Pain: 0
  Maximal disability score: Spontaneous mobility: 3
  Maximal disability score: Tone*: 4
  Maximal disability score: Tremor: 0
  Maximal disability score: Vision (including pupillary reflex): 1
  Total expanded disability scale: 10
[2]; day 119 after immunization
  Maximal disability score: Alertness: 1
  Maximal disability score: Bladder function: 0
  Maximal disability score: Eye movements: 1
  Maximal disability score: Motor (grip)*: 0
  Maximal disability score: Other signs (shine hairs and loose skin): 0
  Maximal disability score: Sensory* Light touch: 4
  Maximal disability score: Sensory* Pain: 4
  Maximal disability score: Spontaneous mobility: 2
  Maximal disability score: Tone*: 4
  Maximal disability score: Tremor: 1
  Maximal disability score: Vision (including pupillary reflex): 0
  Total expanded disability scale: 17

## NS(=O)(=O)c1cccc2c1c([N+](=O)[O-])cc1nc(O)c(O)nc12 [NBQX, 2,3-dihydroxy-6-nitro-7-sulfamoylbenzo(f)quinoxaline]
EAE
  pathogenesis of EAE: slightly ameliorates the pathogenesis of EAE
oligodendrocytes
  excitotoxic effects of glutamate on oligodendrocytes: inhibits the excitotoxic effects of glutamate on oligodendrocytes
[2]
  total scores (disability scale): 30
[2]; day 55 after immunization
  Maximal disability score: Alertness: 2
  Maximal disability score: Bladder function: 0
  Maximal disability score: Eye movements: 1
  Maximal disability score: Motor (grip)*: 12
  Maximal disability score: Other signs (shine hairs and loose skin): 3
  Maximal disability score: Sensory* Light touch: 8
  Maximal disability score: Sensory* Pain: 8
  Maximal disability score: Spontaneous mobility: 3
  Maximal disability score: Tone*: 12
  Maximal disability score: Tremor: 2
  Maximal disability score: Vision (including pupillary reflex): 1
  Total expanded disability scale: 53
[2]; day 60 after immunization
  Maximal disability score: Alertness: 2
  Maximal disability score: Bladder function: 1
  Maximal disability score: Eye movements: 1
  Maximal disability score: Motor (grip)*: 12
  Maximal disability score: Other signs (shine hairs and loose skin): 2
  Maximal disability score: Sensory* Light touch: 8
  Maximal disability score: Sensory* Pain: 8
  Maximal disability score: Spontaneous mobility: 3
  Maximal disability score: Tone*: 12
  Maximal disability score: Tremor: 2
  Maximal disability score: Vision (including pupillary reflex): 1
  Total expanded disability scale: 53
[2]; day 65 after immunization
  Maximal disability score: Alertness: 1
  Maximal disability score: Bladder function: 0
  Maximal disability score: Eye movements: 0
  Maximal disability score: Motor (grip)*: 4
  Maximal disability score: Other signs (shine hairs and loose skin): 0
  Maximal disability score: Sensory* Light touch: 0
  Maximal disability score: Sensory* Pain: 0
  Maximal disability score: Spontaneous mobility: 2
  Maximal disability score: Tone*: 8
  Maximal disability score: Tremor: 0
  Maximal disability score: Vision (including pupillary reflex): 0
  Total expanded disability scale: 15
[2]; day 70 after immunization
  Maximal disability score: Alertness: 1
  Maximal disability score: Bladder function: 0
  Maximal disability score: Eye movements: 1
  Maximal disability score: Motor (grip)*: 4
  Maximal disability score: Other signs (shine hairs and loose skin): 0
  Maximal disability score: Sensory* Light touch: 0
  Maximal disability score: Sensory* Pain: 0
  Maximal disability score: Spontaneous mobility: 3
  Maximal disability score: Tone*: 4
  Maximal disability score: Tremor: 0
  Maximal disability score: Vision (including pupillary reflex): 0
  Total expanded disability scale: 13
[2]; day 75 after immunization
  Maximal disability score: Alertness: 1
  Maximal disability score: Bladder function: 1
  Maximal disability score: Eye movements: 0
  Maximal disability score: Motor (grip)*: 8
  Maximal disability score: Other signs (shine hairs and loose skin): 0
  Maximal disability score: Sensory* Light touch: 4
  Maximal disability score: Sensory* Pain: 8
  Maximal disability score: Spontaneous mobility: 3
  Maximal disability score: Tone*: 4
  Maximal disability score: Tremor: 0
  Maximal disability score: Vision (including pupillary reflex): 1
  Total expanded disability scale: 30
[2]; day 119 after immunization
  Maximal disability score: Alertness: 1
  Maximal disability score: Bladder function: 0
  Maximal disability score: Eye movements: 1
  Maximal disability score: Motor (grip)*: 4
  Maximal disability score: Other signs (shine hairs and loose skin): 2
  Maximal disability score: Sensory* Light touch: 4
  Maximal disability score: Sensory* Pain: 4
  Maximal disability score: Spontaneous mobility: 2
  Maximal disability score: Tone*: 4
  Maximal disability score: Tremor: 1
  Maximal disability score: Vision (including pupillary reflex): 0
  Total expanded disability scale: 23
